Test results reported in patent US12338256B2, “Aza-tetracyclic oxazepine compounds and uses thereof” (Genentech, Inc., priority 2022, dated 2025).

Columns and labels:
Format in all cases: cell-based
[1] = test system: H1975 (KRAS wild type human lung adenocarcinoma cell line); assay: KRAS 3D-Cell Proliferation Assay, H1975 (Example 503); conditions: Homo sapiens, NCI-H1975, 168 h, H1975 3D culture, 7 days, CellTiter-Glo 3D; read-out: Prolif H1975 3D ATP IC50
How it was run: (§1)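 3D culture, ultra-low attachment wells; RPMI-1640/10% FBS/2 mM L-glutamine. Overnight settle, then compound series, 0.3% DMSO final, 7 d, 37° C, 5% CO2. Readout: CellTiter-Glo 3D luminescence. % inhibition vs DMSO (0%) and 1 μM staurosporine (100%); IC50 via 4-parameter Hill.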

[2] = test system: PC-9 (KRAS wild type human lung adenocarcinoma cell line); assay: KRAS 3D-Cell Proliferation Assay, PC-9 (Example 503); conditions: 168 h, PC-9 3D culture, 7 days, CellTiter-Glo 3D, read-out: Prolif PC9 3D ATP IC50
Procedure: Example 503: KRAS 3D-Cell Proliferation Assays. Cellular potencies of compounds are assessed by evaluating inhibition of proliferation in 3D cultures of homozygous mutant KRAS G12D human pancreatic cell lines (AsPC-1 and HPAC) as compared to a KRAS wild type human lung adenocarcinoma cell line (PC-9 and/or H1975). Cells are seeded into 384-well black round-bottom, ultra-low attachment assay plates in 50 uL cell growth medium (RPMI-1640 with 10% fetal bovine serum and 2 mM L-glutamine). After overnight incubation at 37° C. and 5% CO2, compounds solubilized in DMSO are added as dilution series to the wells in a total volume of 150 nL (0.3% DMSO final). The cells are incubated for 7 days at 37° C. and 5% CO2. Cell proliferation is quantitated by addition of 40 uL/well of CellTiter-GloÒ 3D (Promega), and the well contents are mixed 20× at high speed using liquid handling automation workstation (Bravo with 384-well head) and centrifuged at 1500 rpm for 2 minutes to eliminate bubbles. This reagent in combination with mechanical disruption releases the cellular ATP to promote activity in a luciferase-based enzyme/substrate chemiluminescent detection system. After a 30-minute incubation under ambient conditions with shaking and an additional 10 minutes without shaking, the luminescence is read on a plate reader (e.g., EnVision [PerkinElmer]). The results are normalized to percent inhibition based on the following control samples: DMSO (0% inhibition) and 1 μM staurosporine (100% inhibition). The normalized luminescence results are plotted against compound concentration, and the data are fit to a 4-parameter Hill equation to determine the IC50 values.

[3] = test system: HPAC (homozygous mutant KRAS G12D human pancreatic cell line); assay: KRAS 3D-Cell Proliferation Assay, HPAC (Example 503); conditions: Homo sapiens, HPAC, 168 h, HPAC 3D culture, 7 days, CellTiter-Glo 3D; read-out: Prolif HPAC 3D ATP IC50
How it was run: as §1

[4] = test system: AsPC-1 (homozygous mutant KRAS G12D human pancreatic cell line); assay: KRAS 3D-Cell Proliferation Assay, AsPC-1 (Example 503); conditions: Homo sapiens, ASPC1, 168 h, AsPC-1 3D culture, 7 days, CellTiter-Glo 3D; read-out: Prolif AsPC-1 3D ATP IC50
How it was run: as §1

Row | Compound | IC50 [1] [µM] | IC50 [2] [µM] | IC50 [3] [nM] | IC50 [4] [nM]
1 | C[C@@H]1Oc2nc(-c3cccc4cccc(Cl)c34)c(F)c3nc(OCC45CCN4CC(F)(F)C5)nc(c23)N2C[C@H]3CC[C@H](N3)[C@@H]12 (single isomer, unassigned) [Compound 21] | 12.2 | 7.7 | 698 | 
2 | Cc1cc(N)nc(-c2nc3c4c(nc(OC[C@]56CCN5CC(F)(F)C6)nc4c2F)N2C[C@H]4CC[C@H](N4)[C@H]2[C@H](C)O3)c1C(F)(F)F (single isomer, unassigned) [Compound 45] |  | ≥ 20 |  | 
3 | CN1CCC2COc3nc(-c4cc(O)cc5cccc(F)c45)c(F)c4nc(OC[C@@]56CCCN5C[C@H](F)C6)nc(c34)N2CC1 (single isomer, unassigned) [Compound 49] |  | 2.37 |  | ≥ 20000
4 | Oc1cc(-c2nc3c4c(nc(OC[C@@]56CCCN5C[C@H](F)C6)nc4c2F)N2C[C@H]4CC[C@H](N4)[C@H]2CO3)c2c(F)cccc2c1 [Compound 1, 5-Fluoro-4-((5aS,6S,9R)-1-fluoro-12-(((2R,7aS)-2-fluorotetrahydro-1H-pyrrolizin-7a(5H)-yl)methoxy)-5a,6,7,8,9,10-hexahydro-5H-4-oxa-3,10a,11,13,14-pentaaza-6,9-methanonaphtho[1,8-ab]heptalen-2-yl)naphthalen-2-ol] |  | 16.9 |  | 226
5 | Fc1c(-c2cccc3cccc(Cl)c23)nc2c3c(nc(OC[C@@]45CCCN4C[C@H](F)C5)nc13)N1C[C@H]3CC[C@H](N3)[C@H]1CO2 [Compound 2, (5aS,6S,9R)-2-(8-chloronaphthalen-1-yl)-1-fluoro-12-(((2R,7aS)-2-fluorotetrahydro-1H-pyrrolizin-7a(5H)-yl)methoxy)-5a,6,7,9,10-hexahydro-5H-4-oxa-3,10a,11,13,14-pentaaza-6,9-methanonaphtho[1,8-ab]heptalene] |  | 4.68 |  | 565
6 | Cn1ncc2ccc(F)c(-c3nc4c5c(nc(OC[C@@]67CCCN6C[C@H](F)C7)nc5c3F)N3C[C@H]5CC[C@H](N5)[C@H]3CO4)c21 [Compound 4, (5aS,6S,9R)-1-fluoro-2-(6-fluoro-1-methyl-1H-indazol-7-yl)-12-(((2R,7aS)-2-fluorotetrahydro-1H-pyrrolizin-7a(5H)-yl)methoxy)-5a,6,7,8,9,10-hexahydro-5H-4-oxa-3,10a,11,13,14-pentaaza-6,9-methanonaphtho[1,8-ab]heptalene] |  | 13.3 |  | 9750
7 | Cc1cc(N)c(F)c(-c2nc3c4c(nc(OC[C@@]56CCN5CC(F)(F)C6)nc4c2F)N2C[C@H]4CC[C@H](N4)[C@H]2[C@H](C)O3)c1C(F)(F)F [Compound 92, 3-((5S,5aS,6S,9R)-12-(((S)-3,3-Difluoro-1-azabicyclo[3.2.0]heptan-5-yl)methoxy)-1-fluoro-5-methyl-5a,6,7,8,9,10-hexahydro-5H-4-oxa-3,10a,11,13,14-pentaaza-6,9-methanonaphtho[1,8-ab]heptalen-2-yl)-2-fluoro-5-methyl-4-(trifluoromethyl)aniline] |  | 11.2 |  | 
8 | Cc1nc(N)c(F)c(-c2nc3c4c(nc(OC[C@@]56CCCN5CC5(CC5(F)F)C6)nc4c2F)N2C[C@H]4CC[C@H](N4)[C@H]2[C@H](C(F)(F)F)O3)c1C(F)(F)F (stereo partly drawn) [Compound 257, 4-((5R,5aS,6S,9R)-12-(((7a′S)-2,2-Difluorodihydro-1′H,3′H-spiro[cyclopropane-1,2′-pyrrolizin]-7a′(5′H)-yl)methoxy)-1-fluoro-5-(trifluoromethyl)-5a,6,7,8,9,10-hexahydro-5H-4-oxa-3,10a,11,13,14-pentaaza[6,9]methanonaphtho[1,8-ab]heptalen-2-yl)-3-fluoro-6-methyl-5-(trifluoromethyl)pyridin-2-amine] | 5.02 |  | 8.37 | 8
